# Experimental data reported in US20250262241A1, “METHODS TO IMPROVE STABILITY OF VIRUS TRANSDUCTION OF y8 T CELLS AND APPLICATIONS THEREOF” (UNICET BIOTECH CO. LLC., priority 2021, published 2025).
# Where two headings read alike, the source gives them in different places.
# What was measured:
# γδ2 T cells [1] = type: cell-based, human
# Protocol: (§1) The plates were incubated at 37° C., 5% CO2.
# γδ2 T cells [2] = test: CAR (B7H3) related lentivirus transduction of γδ2 T cells with small inhibitors: transduction rate; type: cell-based, human
# Protocol: VSV-G pseudotyped lentiviral vectors were applied in this method. 1×10^7 293T cells were plated into a poly-D-lysine coated 100 mm dish. Next day the cells were transfected with 6 μg of pCDH-EF1-MCS-T2A-copGFP plasmid (Addgene, Plasmid #72263) or pCDH-EF1-CAR-T2A-copGFP plasmid modified from pCDH-EF1-MCS-T2A-copGFP, 4 μg of pspAx2 (Addgene, Plasmid #12260), 2 μg of pCMV-VSV-G (Addgene, Plasmid #8454) using 30 ug PEI transfection regents. After 8 hours of transfection, the cell culture medium was changed. The supernatant were collected 48 hours and 72 hours later. Concentrated the virus with Lenti-X™ Concentrator (Takara) and monitored the virus titers by transduction of 293T cells and stored the concentrated virus in −80° C. until further use.
# (§2) For lentivirus transduction, 1×10^CFU lentivirus diluted in 200 ul PBS were added in a 24-well plate which were pre-coated with RetroNectin reagent (Takara) and centrifugated by 2,000 g for 2 hours at 32° C. After centrifugation, removed the supernatant and washed the plate with PBS three times slightly.
# For the virus transduction of γδ2 T cells, seeded 1×10^PBMCs which were in vitro cultured after 48 hours in the γδ2 T cell culture medium mentioned above (Gibco serum free medium with rhIL-2 and ZOL). Added or not small inhibitors and mixed well and concentrated the cells by 800 g for 10 mins at 32° C. The plates were incubated at 37° C., 5% CO2. Discarded the small inhibitors regent by changing the cell culture medium 24 hours later.
# Calculate the cell number by an automated cell counter and the transduction rate (GFP positive rate) was analyzed by flow cytometry every 2 to 3 days. The transduction rate was monitored in the gate of γδ2 or γδ1 T cells.
# γδ1 T cells = test: CAR related lentivirus transduction of γδ1 T cells with small inhibitors; type: cell-based, human; conditions: control finally around 2%
# Protocol: as §2, §1
# To test the application of these small molecule on improving the transduction rate of δδ1 T cells. We evaluated the transduction rate of δδ1 T cells with/without different dosage of small molecules.
# [3] = biological target: T1, ubiquitin-specific protease USP21 (Homo sapiens, UniProt Q9UK80); conditions: cited from earlier work
# T1 sequence (Q9UK80 1-565): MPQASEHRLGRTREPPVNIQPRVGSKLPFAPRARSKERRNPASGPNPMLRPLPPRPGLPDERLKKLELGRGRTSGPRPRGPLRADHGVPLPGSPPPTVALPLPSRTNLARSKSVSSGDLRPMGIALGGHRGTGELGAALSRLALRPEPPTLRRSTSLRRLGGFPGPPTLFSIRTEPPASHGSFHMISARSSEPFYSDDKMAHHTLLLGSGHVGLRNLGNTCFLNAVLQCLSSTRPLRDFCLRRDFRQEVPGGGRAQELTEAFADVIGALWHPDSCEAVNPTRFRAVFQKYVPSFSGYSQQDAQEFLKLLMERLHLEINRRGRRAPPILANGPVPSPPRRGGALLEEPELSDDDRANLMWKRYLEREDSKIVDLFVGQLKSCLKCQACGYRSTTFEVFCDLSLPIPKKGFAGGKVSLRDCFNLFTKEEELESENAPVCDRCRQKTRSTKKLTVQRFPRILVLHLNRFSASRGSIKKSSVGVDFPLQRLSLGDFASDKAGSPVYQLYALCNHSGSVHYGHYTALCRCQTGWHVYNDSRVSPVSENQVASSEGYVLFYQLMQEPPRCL
# [4] = biological target: ubiquitin-specific protease USP7 (Homo sapiens, UniProt Q93009); conditions: cited from earlier work
# Sequence of ubiquitin-specific protease USP7 (Q93009 whole entry): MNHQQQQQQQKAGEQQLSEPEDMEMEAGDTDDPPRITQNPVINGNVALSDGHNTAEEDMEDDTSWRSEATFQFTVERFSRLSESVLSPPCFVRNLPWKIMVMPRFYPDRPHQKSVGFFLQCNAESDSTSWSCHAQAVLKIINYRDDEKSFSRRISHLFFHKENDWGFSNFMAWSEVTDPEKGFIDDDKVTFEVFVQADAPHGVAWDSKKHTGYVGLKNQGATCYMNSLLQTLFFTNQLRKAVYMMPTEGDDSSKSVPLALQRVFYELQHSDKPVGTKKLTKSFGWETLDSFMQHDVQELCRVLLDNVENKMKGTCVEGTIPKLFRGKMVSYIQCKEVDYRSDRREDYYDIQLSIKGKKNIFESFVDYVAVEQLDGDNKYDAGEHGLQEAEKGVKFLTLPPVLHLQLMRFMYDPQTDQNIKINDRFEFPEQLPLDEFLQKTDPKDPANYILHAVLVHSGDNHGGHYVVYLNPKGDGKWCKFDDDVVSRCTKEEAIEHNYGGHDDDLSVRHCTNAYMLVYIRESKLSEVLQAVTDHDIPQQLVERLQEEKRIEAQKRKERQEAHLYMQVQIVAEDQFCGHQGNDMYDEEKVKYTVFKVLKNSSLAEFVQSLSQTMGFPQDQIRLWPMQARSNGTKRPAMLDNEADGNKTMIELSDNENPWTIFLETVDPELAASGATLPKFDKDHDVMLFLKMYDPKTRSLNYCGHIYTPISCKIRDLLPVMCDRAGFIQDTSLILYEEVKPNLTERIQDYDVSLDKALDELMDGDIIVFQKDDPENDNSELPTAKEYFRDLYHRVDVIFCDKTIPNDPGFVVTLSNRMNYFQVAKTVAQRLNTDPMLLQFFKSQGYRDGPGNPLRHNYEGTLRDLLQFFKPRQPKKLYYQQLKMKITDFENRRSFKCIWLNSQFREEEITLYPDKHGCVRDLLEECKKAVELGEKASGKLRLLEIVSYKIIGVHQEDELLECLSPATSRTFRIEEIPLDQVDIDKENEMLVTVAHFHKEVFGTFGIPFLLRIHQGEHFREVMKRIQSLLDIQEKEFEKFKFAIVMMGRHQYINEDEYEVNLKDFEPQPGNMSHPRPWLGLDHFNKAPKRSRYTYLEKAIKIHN
smiles,measurement,setting,value
CC(C)C[C@H](NC(=O)[C@H](Cc1ccccc1)NC(=O)c1cnccn1)B(O)O [Bortezomib],cell growth,"γδ2 T cells [1]; 0.04 uM, 0.4 uM, 4 uM",impaired the cell growth in a dosage dependent manner
same,cell number,γδ2 T cells [1]; 0.4 uM and 4 uM,significantly cell number loss
same,transduction rate,"γδ2 T cells [2]; 0.04 uM, control around 5% at Day10",~50%
same,transduction rate,"γδ2 T cells [2]; 0.4 uM and 4 uM, control around 5% at Day10",higher than 20%
same,effect on transduction rate of γδ1 T cells,"γδ1 T cells; 0.04 μM, 0.4 μM or 4 μM",All the molecules except for Bortezomib could improve the transduction rate
COc1cc(/C=C/C(=O)CC(=O)/C=C/c2ccc(O)c(OC)c2)ccc1O [Curcumin],cell growth,γδ2 T cells [1]; 10 uM,inhibited the cell growth slightly
same,cell growth,γδ2 T cells [1]; 100 uM,significantly impaired the cell growth
same,cell growth,γδ2 T cells [1]; luM (low dosage),enhanced the cell growth
same,transduction rate,"γδ2 T cells [2]; 10 uM, day 10, control around 5%",higher than 20%
same,effect on transduction rate,γδ2 T cells [2]; 100 uM (highest dosage),slightly enhance the transduction rate
same,effect on transduction rate,γδ2 T cells [2]; luM (low dosage),did not enhance the transduction rate
same,effect on transduction rate of γδ1 T cells,γδ1 T cells; 10 uM,could improve the transduction rate
Nc1ncc2[nH]cnc2n1 [2-Aminopurine],cell growth,γδ2 T cells [1]; 5 uM to 500 uM,did not impair the cell growth
same,effect on transduction rate,γδ2 T cells [2]; 5 uM to 500 uM,enhance the transduction rate in a dosage dependent manner
same,transduction rate,"γδ2 T cells [2]; 500 uM, control around 5% at Day10",around 60%
same,effect on transduction rate of γδ1 T cells,γδ1 T cells; 500 uM,could improve the transduction rate
COc1cc(O)c2c(c1)/C=C/C[C@H](O)[C@H](O)C(=O)/C=C\C[C@H](C)OC2=O [(5Z)-7-Oxozeaenol],cell growth,γδ2 T cells [1]; 0.6 uM and 6 uM,did not influence the cell growth
same,cell growth,γδ2 T cells [1]; 60 uM compared with 6 uM,impaired the cell growth
same,transduction rate,"γδ2 T cells [2]; 0.6 uM, control around 5% at Day10",higher than 20%
same,transduction rate,"γδ2 T cells [2]; 6 uM, control around 5% at Day10",higher than 30%
same,effect on transduction rate,γδ2 T cells [2]; 60 uM compared with 6 uM,did not perform better to improve the transduction rate
same,effect on transduction rate of γδ1 T cells,γδ1 T cells; 6 uM,could improve the transduction rate
C[C@@H]1C[C@H]2[C@@H]3CCC4=CC(=O)C=C[C@]4(C)[C@@]3(F)[C@@H](O)C[C@]2(C)[C@@]1(O)C(=O)CO [Dexamethasone],cell growth,γδ2 T cells [1]; 0.064 uM to 6.4 uM,did not impair the cell growth
same,transduction rate,"γδ2 T cells [2]; 6.4 uM, control around 5% at Day10",higher than 25%
O=C(Nc1nc2ccccc2n1CCN1CCOCC1)c1cccc([N+](=O)[O-])c1 [IRAK1/4 Inhibitor I],cell growth,γδ2 T cells [1]; 0.03 uM to 3 uM,did not impair the cell growth
same,effect on transduction rate,γδ2 T cells [2]; 0.03 uM to 3 uM,enhance the transduction rate in a dosage dependent manner
same,transduction rate,"γδ2 T cells [2]; 3 uM, control around 5% at Day10",higher than 35%
same,effect on transduction rate of γδ1 T cells,γδ1 T cells; 0.3 uM,could improve the transduction rate
Cc1ccc(S(=O)(=O)/C=C/C#N)cc1 [BAY11-7082],cell growth,"γδ2 T cells [1]; 0.5 uM to 50 uM, higher dosage, less total cell number",impaired the cell growth in a dosage dependent manner
same,effect on transduction rate,γδ2 T cells [2]; 0.5 uM to 50 uM,enhance the transduction rate in a dosage dependent manner
same,transduction rate,"γδ2 T cells [2]; 50 uM, control around 5% at Day10",higher than 70%
same,effect on transduction rate of γδ1 T cells,γδ1 T cells; 50 uM,could improve the transduction rate
same,IC50,[3],0.96 µM
same,IC50,[4],0.19 µM
